Experimental data taken from ChEMBL document CHEMBL1201862, “PubChem BioAssay data set” (2004).
Values belong to the molecule of their own block, whether it stands above or below them. Activity calls are given as the source filed them.

Experiments:
[1] = molecular target: E3 ubiquitin-protein ligase Mdm2 (Homo sapiens, UniProt Q00987); experiment: MDM2-luc reporter signal enhancers, multi-concentration potency testing, MDM2 ubiquitin-protein ligase inhibitor program, whole-cell format, luminescence detection, 384-well microplate (AID 1394); type: functional;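 further: MDM2 E3 inhibitors raise luminescence so EC50 is for signal enhancement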
[2] = molecular target: Transthyretin (Homo sapiens, UniProt P02766); experiment: Luminescence-based cell-based high throughput dose response assay to identify activators of Transthyretin (TTR) transcription.; type: functional
[3] = A2780 cell killing – plate reader, dry powder samples, cytotoxicity control, dose response (AID 743046); type: functional, cell-based
[4] = P. falciparum Dd2 growth inhibitors, dose response, SYBR Green, cherry-picked samples (AID 1159567); type: functional, cell-based
[5] = toxicity to human hepatoma HepG2 cells – cell-based, cherry-picked samples, cytotoxicity control, dose response (AID 1159577); type: functional
[6] = molecular target: Paired box protein Pax-8 (Homo sapiens, UniProt Q06710); experiment: PAX8 transcriptional activity inhibition in RMG-I – RMG-I cells, luciferase, cherry-pick, dose response (AID 687027); type: functional, cell-based;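 further: luciferase reporter driven by Pax8 target thyroperoxidase promoter measured by SteadyGlo luminescence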
[7] = IGROV1 cell killing – plate reader, dry powder samples, PAX8 inhibitor project, dose response (AID 743043); type: functional, cell-based; details: IGROV-1
[8] = OVCAR8 cell viability loss – plate reader, dry powder samples, PAX8 project, dose response (AID 743197); type: functional, cell-based; details: OVCAR-8
[9] = OVCAR-3 cell viability loss – plate reader, dry powder samples, PAX8 inhibitor project, dose response (AID 743044); type: functional, cell-based
[10] = toxicity toward immortalized ovarian surface epithelium – cell-based, plate reader, dry powder samples, cytotoxicity control for PAX8 inhibitor project, dose response (AID 743045); type: functional
[11] = Potency on glucagon-like peptide 1 release, dose-response in NCI-H716 cell line, half maximal inhibitory concentration (AID 1117344); type: functional, cell-based
[12] = glucagon-like peptide-1 release potency in STC-1, concentration-response, half-maximal inhibitory concentration in the STC-1 line (AID 1117345); type: functional, cell-based
[13] = cells; type: functional, cell-based; details: INS-1E
[14] = IC50 of insulin release inhibition, rat insulinoma INS-1E line, 5 mM glucose, cell-based (AID 1117331); type: functional

Chain of Paired box protein Pax-8 (Q06710 whole entry): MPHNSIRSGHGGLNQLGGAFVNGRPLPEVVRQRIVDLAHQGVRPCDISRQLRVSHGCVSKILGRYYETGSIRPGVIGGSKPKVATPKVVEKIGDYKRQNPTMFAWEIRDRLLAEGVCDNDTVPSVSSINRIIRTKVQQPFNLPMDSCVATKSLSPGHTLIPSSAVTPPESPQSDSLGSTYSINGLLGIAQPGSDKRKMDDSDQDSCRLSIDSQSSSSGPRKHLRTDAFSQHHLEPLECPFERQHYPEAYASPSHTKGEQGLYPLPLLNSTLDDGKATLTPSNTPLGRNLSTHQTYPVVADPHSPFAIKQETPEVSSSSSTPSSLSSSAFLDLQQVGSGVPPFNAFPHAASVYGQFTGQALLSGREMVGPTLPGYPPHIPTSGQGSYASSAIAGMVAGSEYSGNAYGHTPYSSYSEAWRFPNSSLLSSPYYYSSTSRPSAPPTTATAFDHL
Chain of E3 ubiquitin-protein ligase Mdm2 (Q00987 whole entry): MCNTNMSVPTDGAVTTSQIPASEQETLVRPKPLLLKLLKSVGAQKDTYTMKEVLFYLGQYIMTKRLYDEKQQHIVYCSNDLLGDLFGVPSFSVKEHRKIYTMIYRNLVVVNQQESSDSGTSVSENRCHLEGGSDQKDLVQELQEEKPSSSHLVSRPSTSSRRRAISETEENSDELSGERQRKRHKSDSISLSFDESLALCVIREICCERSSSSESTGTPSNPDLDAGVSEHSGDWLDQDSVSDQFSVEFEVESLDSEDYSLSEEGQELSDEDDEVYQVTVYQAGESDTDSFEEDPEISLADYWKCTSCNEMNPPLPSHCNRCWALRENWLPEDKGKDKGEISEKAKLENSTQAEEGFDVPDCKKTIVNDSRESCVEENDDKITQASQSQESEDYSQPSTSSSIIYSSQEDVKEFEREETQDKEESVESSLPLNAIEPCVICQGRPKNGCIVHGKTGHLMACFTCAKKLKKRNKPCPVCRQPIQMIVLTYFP

EC50 [1]: 14.5 µM (not active)
Compound: COc1ccccc1N1CCN(C(c2ccc(C)cc2)c2nnnn2C(C)C)CC1 (centres undefined)

EC50 [2]: > 167 µM (inactive)
Compound: CCn1ncc(/C=N\NC(=O)c2csc3ccccc23)c1C

Compound: O=C(Nc1cccc(F)c1)N1CCCCN2[C@@H](CO)[C@H](c3ccc(C#Cc4ccccc4)cc3)[C@@H]2C1
AC50 [3]: 19.8 µM (active) | AC50 [4]: < 0.3 µM (active) | AC50 [5]: 7.6 µM (active) | AC50 [6]: 9.89 µM (active) | AC50 [7]: 29.4 µM (active) | AC50 [8]: 65.6 µM (active) | AC50 [9]: 17.2 µM (active) | AC50 [10]: 63.4 µM (active)

Compound: Nc1cc(C(F)(F)F)ccc1S
IC50 [11]: 15.3 µM (inactive) | IC50 [12]: 1.16 µM (active)

Compound: Nc1c2c(nc3ccccc13)CCCC2 [TACRINE]
IC50 [13]: > 33.3 µM (inactive) | IC50 [14]: 17.6 µM (inactive)
